In patent US11998539B2, “Substituted aminoquinolones as DGKalpha inhibitors for immune activation” (Bayer Aktiengesellschaft, priority 2019, dated 2024):

Target: DGKα (Homo sapiens (Human), UniProt P23743)
Experiment: Human DGKα kinase activity inhibition assay (ADP-Glo)
Type: biochemical
Conditions: recombinant full-length human DGKα, 55 μM ATP, 7 μM 1,2-dioleoyl-sn-glycerol, read-out: IC50 values of examples in in vitro human DGKa kinase activity inhibition assays
Experimental: Human DGKα Kinase Activity Inhibition Assay
Human DGKα inhibitory activity of compounds of the present invention was quantified employing the human DGKα kinase activity assay as described in the following paragraphs. In essence, the enzyme activity was measured by quantification of the adenosine-di-phosphate (ADP) generated as a co-product of the enzyme reaction via the “ADP-Glo™ Kinase Assay” kit from the company Promega. This detection system works as follows: In a first step the ATP not consumed in the kinase reaction is quantitatively converted to cAMP employing an adenylate cyclase (“ADP-Glo-reagent”), then the adenylate cyclase is stopped and the ADP generated in the kinase reaction converted to ATP, which subsequently generates in a luciferase-based reaction a glow-luminescence signal (“Kinase Detection Reagent”).
C-terminally FLAG-tagged, recombinant full-length human DGKα (expressed in baculovirus infected insect cells, purified using anti-Flag pulldown and size exclusion chromatography as described below, DGKa_hu_1) was used as enzyme. As substrate for the kinase 1,2-dioleoyl-sn-glycerol, reconstituted in octyl-β-D-glucopyranoside micelles, was used. […] Then 35 volumes of 50 mM MOPS buffer (pH 7.4) were added to yield a solution of 0.28 mM 1,2 dioleoyl-sn-glycerol and 200 mM […], which was aliquoted, flash-frozen in liquid nitrogen, and stored at −20° C. until use.
For the assay 50 nl of a 100-fold concentrated solution of the test compound in dimethyl sulfoxide (DMSO, Sigma) was pipetted into either a white 1536-well or a white low-volume 384-well microtiter plate (both Greiner Bio-One, Frickenhausen, Germany).

DGKα, sequence (P23743 other isoform, or with tags, fused parts or gaps): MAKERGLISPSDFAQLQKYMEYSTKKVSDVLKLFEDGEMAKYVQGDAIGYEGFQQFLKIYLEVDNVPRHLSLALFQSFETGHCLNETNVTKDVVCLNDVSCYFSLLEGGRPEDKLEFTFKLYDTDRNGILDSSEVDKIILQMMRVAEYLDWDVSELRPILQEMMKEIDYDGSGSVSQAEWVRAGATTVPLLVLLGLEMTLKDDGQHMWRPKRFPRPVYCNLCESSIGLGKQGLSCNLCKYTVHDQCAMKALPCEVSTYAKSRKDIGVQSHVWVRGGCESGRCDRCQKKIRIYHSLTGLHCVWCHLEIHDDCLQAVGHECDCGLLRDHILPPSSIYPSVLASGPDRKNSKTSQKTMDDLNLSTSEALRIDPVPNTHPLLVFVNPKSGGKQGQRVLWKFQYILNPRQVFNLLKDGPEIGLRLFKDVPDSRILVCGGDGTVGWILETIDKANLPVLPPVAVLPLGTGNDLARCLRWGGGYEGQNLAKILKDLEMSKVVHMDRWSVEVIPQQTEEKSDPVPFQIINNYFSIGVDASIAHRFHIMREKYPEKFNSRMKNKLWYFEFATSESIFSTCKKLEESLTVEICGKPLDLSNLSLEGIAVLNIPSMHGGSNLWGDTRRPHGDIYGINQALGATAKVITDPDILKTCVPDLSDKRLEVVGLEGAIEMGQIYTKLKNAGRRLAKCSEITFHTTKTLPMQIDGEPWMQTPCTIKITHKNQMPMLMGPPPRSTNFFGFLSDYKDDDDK

Row | Molecule | IC50 [nM]
1 | 4-[4-(1,3-benzoxazol-5-yl)piperidin-1-y-1-methyl-2-oxo-1,2-dihydroquinoline-3-carbonitrile [Example 67] | 85
2 | Cc1ccc2oc(C3CCN(c4c(C#N)c(=O)n(C)c5ccccc45)CC3C)nc2c1 (mixture of isomers) [Example 111, 1-methyl-4-[3-methyl-4-(5-methyl-1,3-benzoxazol-2-yl)piperidin-1-yl]-2-oxo-1,2-dihydroquinoline-3-carbonitrile, mixture of stereoisomers] | 3.2
3 | Cc1ccc2oc(C3CCN(c4c(C#N)c(=O)n(C)c5cc(OC6CCOC6)ccc45)CC3)nc2c1 (racemic) [Example 379, (rac)-1-methyl-4-[4-(5-methyl-1,3-benzoxazol-2-yl)piperidin-1-yl]-2-oxo-7-[(oxolan-3-yl)oxy]-1,2-dihydroquinoline-3-carbonitrile] | 1
4 | Cc1ccc2oc(C3CCN(c4c(C#N)c(=O)n(C)c5cc(OC6CCOC6)c(Br)cc45)CC3)nc2c1 (racemic) [Example 424, (rac)-6-bromo-1-methyl-4-[4-(5-methyl-1,3-benzoxazol-2-yl)piperidin-1-yl]-2-oxo-7-[(oxolan-3-yl)oxy]-1,2-dihydroquinoline-3-carbonitrile] | 0.3
5 | C=C(c1cc2c(N3CCC(c4nc5cc(C)ccc5o4)CC3)c(C#N)c(=O)n(C)c2cc1OC1CCOC1)C(F)(F)F (racemic) [Example 433, (rac)-1-methyl-4-[4-(5-methyl-1,3-benzoxazol-2-yl)piperidin-1-yl]-2-oxo-7-[(oxolan-3-yl)oxy]-6-(3,3,3-trifluoroprop-1-en-2-yl)-1,2-dihydroquinoline-3-carbonitrile] | 8.6
6 | Cc1ccc2oc(C3CCN(c4c(C(N)=O)c(=O)n(C)c5cc(OC6CCOC6)c(C6(C(F)(F)F)CC6)cc45)CC3)nc2c1 (racemic) [Example 518, (rac)-1-methyl-4-[4-(5-methyl-1,3-benzoxazol-2-yl)piperidin-1-yl]-2-oxo-7-[(oxolan-3-yl)oxy]-6-[1-(trifluoromethyl)cyclopropyl]-1,2-dihydroquinoline-3-carboxamide] | 596
7 | Cc1ccc2oc(C3CCN(c4c(C#N)c(=O)n(C)c5cc(OCC6CCOC6)c(Cl)cc45)CC3)nc2c1 (racemic) [Example 572, (rac)-6-chloro-1-methyl-4-[4-(5-methyl-1,3-benzoxazol-2-yl)piperidin-1-yl]-2-oxo-7-[(oxolan-3-yl)methoxy]-1,2-dihydroquinoline-3-carbonitrile] | 1.5
8 | Cc1ccc2oc(C3CCN(c4c(C#N)c(=O)n(C)c5cc(OC6CCOC6)ccc45)CC3)nc2c1 (single isomer, unassigned) [Example 380, 1-methyl-4-[4-(5-methyl-1,3-benzoxazol-2-yl)piperidin-1-yl]-2-oxo-7-[(oxolan-3-yl)oxy]-1,2-dihydroquinoline-3-carbonitrile] | 0.4
9 | Cc1ccc2oc(C3CCN(c4c(C#N)c(=O)n(C)c5cc(OC6CCOC6)ccc45)CC3)nc2c1 (single isomer, unassigned) [Example 381, 1-methyl-4-[4-(5-methyl-1,3-benzoxazol-2-yl)piperidin-1-yl]-2-oxo-7[(oxolan-3-yl)oxy]-1,2-dihydroquinoline-3-carbonitrile] | 7.4
10 | Cn1c(=O)c(C#N)c(N2CCC(C)(c3nc4ccccc4o3)CC2)c2ccccc21 [Example 1, 4-[4-(1,3-benzoxazol-2-yl)-4-methylpiperidin-1-yl]-1-methyl-2-oxo-1,2-dihydroquinoline-3-carbonitrile] | 1.4
11 | Cn1c(=O)c(C#N)c(N2CCC(c3nc4ccccc4o3)CC2)c2ccccc21 [Example 2, 4-[4-(1,3-benzoxazol-2-yl)piperidin-1-yl]-1-methyl-2-oxo-1,2-dihydroquinoline-3-carbonitrile] | 6.4
12 | Cn1c(=O)c(C#N)c(N2CCC(c3nc4cccc(F)c4o3)CC2)c2ccccc21 [Example 3, 4-[4-(7-fluoro-1,3-benzoxazol-2-yl)piperidin-1-yl]-1-methyl-2-oxo-1,2-dihydroquinoline-3-carbonitrile] | 2.6
13 | Cn1c(=O)c(C#N)c(N2CCC(c3nc4ccc(F)cc4o3)CC2)c2ccccc21 [Example 4, 4-[4-(6-fluoro-1,3-benzoxazol-2-yl)piperidin-1-yl]-1-methyl-2-oxo-1,2-dihydroquinoline-3-carbonitrile] | 2.8
14 | Cc1ccc2oc(C3CCN(c4c(C#N)c(=O)n(C)c5ccccc45)CC3)nc2c1 [Example 5, 1-methyl-4-[4-(5-methyl-1,3-benzoxazol-2-yl)piperidin-1-yl]-2-oxo-1,2-dihydroquinoline-3-carbonitrile] | 1.6
15 | Cn1c(=O)c(C#N)c(N2CCC(c3nc4cc(F)ccc4o3)CC2)c2ccccc21 [Example 6, 4-[4-(5-fluoro-1,3-benzoxazol-2-yl)piperidin-1-yl]-1-methyl-2-oxo-1,2-dihydroquinoline-3-carbonitrile] | 4.3
16 | Cc1ccc2nc(C3CCN(c4c(C#N)c(=O)n(C)c5ccccc45)CC3)oc2c1 [Example 7, 1-methyl-4-[4-(6-methyl-1,3-benzoxazol-2-yl)piperidin-1-yl]-2-oxo-1,2-dihydroquinoline-3-carbonitrile] | 3.2
17 | CC(C)c1ccc2oc(C3CCN(c4c(C#N)c(=O)n(C)c5ccccc45)CC3)nc2c1 [Example 8, 1-methyl-2-oxo-4-{4-[5-(propan-2-yl)-1,3-benzoxazol-2-yl]piperidin-1-yl}-1,2-dihydroquinoline-3-carbonitrile] | 3.2
18 | Cn1c(=O)c(C#N)c(N2CCC(c3nc4ccc(Cl)cc4o3)CC2)c2ccccc21 [Example 9, 4-[4-(6-chloro-1,3-benzoxazol-2-yl)piperidin-1-yl]-1-methyl-2-oxo-1,2-dihydroquinoline-3-carbonitrile] | 3.3
19 | Cn1c(=O)c(C#N)c(N2CCC(c3nc4cc(Cl)ccc4o3)CC2)c2ccccc21 [Example 11, 4-[4-(5-chloro-1,3-benzoxazol-2-yl)piperidin-1-yl]-1-methyl-2-oxo-1,2-dihydroquinoline-3-carbonitrile] | 3.8
20 | Cn1c(=O)c(C#N)c(N2CCC(c3nc4ccccc4s3)CC2)c2ccccc21 [Example 12, 4-[4-(1,3-benzothiazol-2-yl)piperidin-1-yl]-1-methyl-2-oxo-1,2-dihydroquinoline-3-carbonitrile] | 3.5
21 | Cn1c(=O)c(C#N)c(N2CCC(c3nc4cc(F)ccc4s3)CC2)c2ccccc21 [Example 13, 4-[4-(5-fluoro-1,3-benzothiazol-2-yl)piperidin-1-yl]-1-methyl-2-oxo-1,2-dihydroquinoline-3-carbonitrile] | 5.1
22 | Cn1c(=O)c(C#N)c(N2CCC(c3nc4ccc(Br)cc4s3)CC2)c2ccccc21 [Example 14, 4-[4-(6-bromo-1,3-benzothiazol-2-yl)piperidin-1-yl]-1-methyl-2-oxo-1,2-dihydroquinoline-3-carbonitrile] | 4.4
23 | Cc1cccc2nc(C3CCN(c4c(C#N)c(=O)n(C)c5ccccc45)CC3)oc12 [Example 15, 1-methyl-4-[4-(7-methyl-1,3-benzoxazol-2-yl)piperidin-1-yl]-2-oxo-1,2-dihydroquinoline-3-carbonitrile] | 11
24 | Cn1c(=O)c(C#N)c(N2CCC(F)(c3nc4ccccc4s3)CC2)c2ccccc21 [Example 16, 4-[4-(1,3-benzothiazol-2-yl)-4-fluoropiperidin-1-yl]-1-methyl-2-oxo-1,2-dihydroquinoline-3-carbonitrile] | 9.9
25 | Cc1cccc2oc(C3CCN(c4c(C#N)c(=O)n(C)c5ccccc45)CC3)nc12 [Example 17, 1-methyl-4-[4-(4-methyl-1,3-benzoxazol-2-yl)piperidin-1-yl]-2-oxo-1,2-dihydroquinoline-3-carbonitrile] | 12
26 | Cn1c(=O)c(C#N)c(N2CCC(c3nc4cc(Cl)ccc4s3)CC2)c2ccccc21 [Example 18, 4-[4-(5-chloro-1,3-benzothiazol-2-yl)piperidin-1-yl]-1-methyl-2-oxo-1,2-dihydroquinoline-3-carbonitrile] | 3.7
27 | Cn1c(=O)c(C#N)c(N2CCC(c3nc4ccc(Cl)nc4s3)CC2)c2ccccc21 [Example 19, 4-[4-(5-chloro[1,3]thiazolo[5,4-b]pyridin-2-yl)piperidin-1-yl]-1-methyl-2-oxo-1,2-dihydroquinoline-3-carbonitrile] | 15
28 | Cn1c(=O)c(C#N)c(N2CCC(C)(c3nc4ccc(OC(F)(F)F)cc4o3)CC2)c2ccccc21 [Example 20, 1-methyl-4-{4-methyl-4-[6-(trifluoromethoxy)-1,3-benzoxazol-2-yl]piperidin-1-yl}-2-oxo-1,2-dihydroquinoline-3-carbonitrile] | 1.5
29 | CC(C)c1ccc2oc(C3(C)CCN(c4c(C#N)c(=O)n(C)c5ccccc45)CC3)nc2c1 [Example 21, 1-methyl-4-{4-methyl-4-[5-(propan-2-yl)-1,3-benzoxazol-2-yl]piperidin-1-yl}-2-oxo-1,2-dihydroquinoline-3-carbonitrile] | 5.2
30 | Cn1c(=O)c(C#N)c(N2CCC(c3nc4cc(F)c(F)cc4o3)CC2)c2ccccc21 [Example 22, 4-[4-(5,6-difluoro-1,3-benzoxazol-2-yl)piperidin-1-yl]-1-methyl-2-oxo-1,2-dihydroquinoline-3-carbonitrile] | 6
